BindingDB's records for doi:10.1016/j.bmc.2008.10.052 (Universidade Federal De Santa Maria, 2008)

Target: Cruzipain (Trypanosoma cruzi, UniProt P25779)
Assay: Inhibition of Trypanosoma cruzi C-terminal truncated cruzain expressed in DH5alpha Escherichia coli by well-microplate spectrophotometry

Chain of Cruzipain (P25779 whole entry, the tested form may be a part): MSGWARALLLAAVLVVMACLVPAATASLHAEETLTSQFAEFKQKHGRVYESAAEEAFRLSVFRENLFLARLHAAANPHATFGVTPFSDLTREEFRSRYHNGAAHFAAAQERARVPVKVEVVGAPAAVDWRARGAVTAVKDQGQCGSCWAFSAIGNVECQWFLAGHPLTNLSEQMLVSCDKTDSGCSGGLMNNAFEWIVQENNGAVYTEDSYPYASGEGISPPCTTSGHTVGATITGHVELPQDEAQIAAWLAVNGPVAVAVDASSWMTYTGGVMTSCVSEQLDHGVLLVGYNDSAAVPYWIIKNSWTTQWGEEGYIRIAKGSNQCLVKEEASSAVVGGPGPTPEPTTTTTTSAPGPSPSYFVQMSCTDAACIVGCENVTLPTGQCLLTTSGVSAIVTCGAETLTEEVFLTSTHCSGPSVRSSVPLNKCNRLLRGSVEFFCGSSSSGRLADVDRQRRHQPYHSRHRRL

Point of comparison: `Cc1cc(C(F)(F)F)nc(N=NCc2ccc(Cl)cc2)n1` [2-(N'-4-chloro-benzylidenehydrazino)-6-methyl-4-trifluoro-methyl-pyrimidine], IC50 100 µM. Against it:
- COc1ccccc1CN=Nc1nc(C)cc(C(F)(F)F)n1 [2-(N'-2-Methoxy-benzylidenehydrazino)-6-methyl-4-trifluoromethyl-pyri-midine] — higher, > 150 µM
- Cc1ccccc1CN=Nc1nccc(C(F)(F)F)n1 [2-(N'-2-Methyl-benzylidenehydrazino)-4-trifluoromethyl-pyrimidine] — higher, > 100 µM
- Cc1cc(C(F)(F)F)nc(N=NCc2ccccc2C)n1 [2-(N'-2-Methyl-benzylidenehydrazino)-6-methyl-4-trifluoromethyl-pyrimidine] — higher, > 100 µM
- Cc1ccc(CN=Nc2nccc(C(F)(F)F)n2)cc1 [2-(N'-4-Methyl-benzylidenehydrazino)-4-trifluoromethyl-pyrimidine] — higher, > 100 µM
- O=[N+]([O-])c1ccc(CN=Nc2nccc(C(F)(F)F)n2)cc1 [2-(N'-4-Nitro-benzylidenehydrazino)-4-trifluoromethylpyrimidine] — the same, 100 µM
- COc1ccc(CN=Nc2nccc(C(F)(F)F)n2)cc1 [2-(N'-4-methoxy-benzylidenehydrazino)-4-trifluoromethyl-pyrimidine] — higher, > 100 µM
- FC(F)(F)c1ccnc(N=NCc2ccccc2)n1 [2-(N'-Benzylidenehydrazino)-4-trifluoromethylpyrimidine] — higher, > 150 µM
